From patent US20170008928A1, “NOVEL PEPTIDES AND PEPTIDE DERIVATIVES AND USES THEREOF” (Novo Nordisk A/S, priority 2015, published 2017)
Where two headings read alike, the source gives them in different places. Starred links: 1 amine or outer side, 2 acyl side, 3 side chain; linkers in the order of their positions; H or OH if unused. Non-standard residues stand in square brackets, D forms with d. Residues, ends and D or L forms follow the SMILES beside them. *: point of attachment. Phe(4-CH2SO3H) = N[C@@H](Cc1ccc(CS(=O)(=O)O)cc1)C(=O)O; sY = N[C@@H](Cc1ccc(OS(=O)(=O)O)cc1)C(=O)O; C18 diacid = O=C(O)CCCCCCCCCCCCCCCCC(=O)*; C16 diacid = O=C(O)CCCCCCCCCCCCCCC(=O)*; γGlu = O=C(O)[C@H](CCC(=O)[*:2])N[*:1]; βAsp = O=C(O)[C@H](CC(=O)[*:2])N[*:1]; NMeF = CN[C@@H](Cc1ccccc1)C(=O)O; dNMeD = CN[C@H](CC(=O)O)C(=O)O; Nle = CCCC[C@H](N)C(=O)O; AEEA = NCCOCCOCC(=O)O

Columns and labels:
[1] = target: T1, human cholecystokinin-2 receptor (CCK-2R) (Homo sapiens, UniProt P32239); test: In vitro potency on CCK-2R, whole cell functional assay (IP1 accumulation, IP-One HTRF); type: cell-based
T1 construct: host or cells: 1321-N1 cells (plasma membranes prepared by Evotec AG Hamburg)
T1 sequence (P32239 1-447): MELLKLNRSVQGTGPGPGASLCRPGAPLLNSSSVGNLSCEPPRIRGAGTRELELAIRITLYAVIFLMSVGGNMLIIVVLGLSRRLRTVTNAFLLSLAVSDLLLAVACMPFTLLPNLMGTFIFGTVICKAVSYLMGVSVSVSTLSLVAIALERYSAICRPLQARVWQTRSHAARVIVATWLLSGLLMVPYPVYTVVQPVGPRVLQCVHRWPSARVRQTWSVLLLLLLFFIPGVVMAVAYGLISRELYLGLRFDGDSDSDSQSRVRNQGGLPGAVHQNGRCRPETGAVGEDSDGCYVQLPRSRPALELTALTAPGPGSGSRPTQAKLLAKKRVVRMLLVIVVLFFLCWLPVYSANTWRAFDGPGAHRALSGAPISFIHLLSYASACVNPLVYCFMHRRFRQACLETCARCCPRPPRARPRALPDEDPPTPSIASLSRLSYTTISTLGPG

[2] = target: T2, human cholecystokinin-1 receptor (CCK-1R) (Homo sapiens, UniProt P32238); test: In vitro receptor binding to CCK-1R, SPA displacement of [125I]-CCK-8s from plasma membranes; conditions: for CCK-1R binding selectivity (IC50 (CCK-2R)/IC50 (CCK-1R)): ratio of binding IC50 values, >1 = preference for CCK-1R
T2 construct: host or cells: 1321-N1 cells
T2 sequence (P32238 1-428): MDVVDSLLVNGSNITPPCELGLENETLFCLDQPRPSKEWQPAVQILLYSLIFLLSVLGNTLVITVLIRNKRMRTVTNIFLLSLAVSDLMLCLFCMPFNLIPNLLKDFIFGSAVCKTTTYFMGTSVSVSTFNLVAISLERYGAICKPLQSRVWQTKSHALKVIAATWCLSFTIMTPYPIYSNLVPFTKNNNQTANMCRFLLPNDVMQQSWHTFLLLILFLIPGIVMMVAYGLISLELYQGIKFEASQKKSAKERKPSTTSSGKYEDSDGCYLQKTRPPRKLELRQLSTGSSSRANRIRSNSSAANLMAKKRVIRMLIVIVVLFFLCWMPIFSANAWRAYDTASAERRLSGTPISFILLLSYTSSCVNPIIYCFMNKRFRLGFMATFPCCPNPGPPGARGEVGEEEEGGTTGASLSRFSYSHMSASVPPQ
Description: The in vitro binding affinity is a measure of the strength of attraction between a receptor and its ligand.
Displacement of radio ligand was measured as reduction in light emission from SPA beads.
The cells used in these assays were 1321-N1 cells stably expressing the CCK-1R or the CCK-2R (Perkin Elmer product numbers ES-530-A and ES-531-A, respectively see www.perkinelmer.com/Catalog/Product/ID/ES-530-A or -ES-531-A, respectively).
The cells were cultured in an incubator (95% RH (relative humidity), 5% (of standard atmospheric pressure) CO2, 37° C.) in cell culture medium (DMEM (Lonza catalogue BE-12-604F/U1), with 10% (v/v) Foetal Calf Serum (FCS, Gibco catalogue 16140-071), 1% (w/w) Sodium pyruvate (Gibco catalogue 11360-039), 500 μg/ml Geneticin® (G418) (Gibco catalogue 10131-027), 25 μg/ml Zeocin™ (Invitrogen catalogue R250-05), 1% (w/w) Pen/Strep (Gibco catalogue 15140-122)).
Plasma membranes were prepared by Evotec AG Hamburg by use of the ParrBomb (#4635, Parr Instrument Company). Cells were lysed with a lysis buffer (50 mM Tris, 2.5 mM EDTA, pH7) with added protease inhibitors (Complete Proteaseinhibitors EDTA-free (#05056489001, Roche), 1 tablet per 50 mL lysis buffer). The membrane fraction was separated by centrifugation. First, the cell lysate was centrifuged at 1000×g for 10 minutes at 4° C. The pellet was discarded and the supernatant was then centrifuged at 100.000×g for 30 minutes at 4° C. The supernatant was discarded and the pellet was re-suspended in 1 ml/5×10^8 cells ice cold membrane buffer (50 mM Tris, 320 mM Sucrose and Complete Proteaseinhibitors EDTA-free (#05056489001, Roche); pH7.4) and homogenised with dounce homogeniser. The protein concentration was determined using the Pierce™ BCA Protein Assay Kit according to kit manual, and the membrane preparation was adjust to the desired protein concentration with membrane buffer and aliquoted into pre-cooled tubes, snap-frozen in liquid nitrogen, and stored at −80° C.
CCK receptor binding assays were performed in 96-well Optiplates (Cat #6005290, PerkinElmer, Waltham, Mass., USA) in a total volume of 200 μl per well. CCK derivatives in 80% DMSO stock solutions of 800 μM were serially diluted […] in assay buffer (50 mM Tris/HCl, 4.5 mM MgCl2, […], 0.02% Tween 20, 0.25% ovalbumin, 0.1% pluronic F-68, pH 7.4) to final assay concentrations ranging from 10^−5 M (ten μM) to 10^−12 M (one pM).
Fifty μl of reference or test compounds were added to the Optiplates (using technical duplicates, i.e. two wells of each sample, one data point being the average of two wells), followed by addition of 150 μl of the mixture of SPA bead, radio ligand, and plasma membrane. The plates were sealed and incubated in the dark at +22° C. for 2 hours on a IKA MTS plate shaker (IKA-Werke D-79219 Staufen) set at 300 rpm and thereafter centrifuged at 1500 rpm for 10 minutes in a Heraeus Multifuge 3s centrifuge. SPA bead light emission was measured in a TopCount NXT (PerkinElmer) for 2 min/well after a delay of 60 min.
As a measure of compound affinity, calculations were performed in order to determine the half maximal inhibitory concentration (the IC50 value).
The data from the TopCounter were given as counts per minute (CPM). The CPM was plotted as a function of the concentration of compound. Dose-response curves were obtained, and IC50 values were calculated, by a nonlinear three-parameter logistic equation (log(agonist) vs response) with hillslope=−1, and shared top and bottom using the software programme GraphPad Prism v 6.0 (Graph Pad software, La Jolla, Calif., USA). The highest dose tested was 10^−5 M (1×10^7 pM).
The preference of a specific compound for the CCK-1 receptor, or the CCK-1R selectivity, may be defined as IC50 (CCK-2R)/IC50 (CCK-1R).
A minimum of three biological replicates was measured for each test compound on separate assay plates.

[3] = target: T1, human cholecystokinin-2 receptor (CCK-2R); test: In vitro receptor binding to CCK-2R, SPA displacement of [125I]-CCK-8s from plasma membranes
[4] = target: T2, human cholecystokinin-1 receptor (CCK-1R); test: In vitro potency on CCK-1R, whole cell functional assay (IP1 accumulation, IP-One HTRF); type: cell-based
[5] = ratio of functional EC50 values, >1 = preference for CCK-1R
[6] = 1321-N1 cells stably expressing CCK-1R, IP1 accumulation, average of min. three replicates, read-out: EC50 (CCK-1R)

`CCCC[C@H](NC(=O)[C@H](Cc1c[nH]c2ccccc12)NC(=O)CNC(=O)[C@H](CC(C)C)NC(=O)[C@H](Cc1ccc(CS(=O)(=O)O)cc1)NC(=O)[C@H](CC(=O)O)NC(=O)COCCOCCNC(=O)COCCOCCNC(=O)CC[C@H](NC(=O)CCCCCCCCCCCCCCC(=O)O)C(=O)O)C(=O)N(C)[C@H](CC(=O)O)C(=O)N(C)[C@@H](Cc1ccccc1)C(N)=O` [Example 6, 2-[2-[2-[[2-[2-[2-[[(4S)-4-Carboxy-4-(15-carboxypentadecanoylamino)butanoyl]amino]ethoxy]ethoxy]acetyl]amino]ethoxy]ethoxy]acetyl-Asp-Phe(4-sulfomethyl)-Leu-Gly-Trp-Nle-DMeAsp-MePhe-amide] ({C16 diacid-γGlu-AEEA-AEEA}-D[Phe(4-CH2SO3H)]LGW[Nle][dNMeD][NMeF]-NH2) gave an EC50 [1] of over 1000 nM, an IC50 [2] of 0.2 nM and an IC50 [3] of over 10000 nM. It also gave an EC50 [4] of 0.2 nM.

In the case of `CC(C)C[C@H](NC(=O)[C@H](Cc1ccc(OS(=O)(=O)O)cc1)NC(=O)[C@H](CC(=O)O)NC(=O)COCCOCCNC(=O)COCCOCCNC(=O)CC[C@H](NC(=O)CCCCCCCCCCCCCCCCC(=O)O)C(=O)O)C(=O)NCC(=O)N[C@@H](Cc1c[nH]c2ccccc12)C(=O)N[C@H](C(=O)N(C)[C@H](CC(=O)O)C(=O)N(C)[C@@H](Cc1ccccc1)C(N)=O)C(C)C` [Example 14, 2-[2-[2-[[2-[2-[2-[[(4S)-4-Carboxy-4-(17-carboxyheptadecanoylamino)butanoyl]amino]ethoxy]ethoxy]acetyl]amino]ethoxy]ethoxy]acetyl-Asp-sTyr-Leu-Gly-Trp-Val-DMeAsp-MePhe-amide] ({C18 diacid-γGlu-AEEA-AEEA}-D[sY]LGWV[dNMeD][NMeF]-NH2), the EC50 [1] is reported as 730 nM, the IC50 [2] is reported as 0.31 nM and the “CCK-1R binding selectivity (IC50 (CCK-2R)/IC50 (CCK-1R))” value (“CCK-1R binding selectivity” for short) [2] is reported as 21000. For the same compound, the IC50 [3] was 6400 nM, the “CCK-1R selectivity (EC50 (CCK-2R)/EC50 (CCK-1R))” value (“CCK-1R selectivity” for short) [4] was 5100 and the EC50 [4] was 0.14 nM.

`CCCC[C@H](NC(=O)[C@H](Cc1c[nH]c2ccccc12)NC(=O)CNC(=O)[C@H](Cc1ccccc1)NC(=O)[C@H](Cc1ccc(OS(=O)(=O)O)cc1)NC(=O)[C@H](CC(=O)O)NC(=O)COCCOCCNC(=O)COCCOCCNC(=O)CC[C@H](NC(=O)CCCCCCCCCCCCCCCCC(=O)O)C(=O)O)C(=O)N(C)[C@H](CC(=O)O)C(=O)N(C)[C@@H](Cc1ccccc1)C(N)=O` [Example 44, 2-[2-[2-[[2-[2-[2-[[(4S)-4-Carboxy-4-(17-carboxyheptadecanoylamino)butanoyl]amino]ethoxy]ethoxy]acetyl]amino]ethoxy]ethoxy]acetyl-Asp-sTyr-Phe-Gly-Trp-Nle-DMeAsp-MePhe-amide] ({C18 diacid-γGlu-AEEA-AEEA}-D[sY]FGW[Nle][dNMeD][NMeF]-NH2) was tested, and the “CCK-1R binding selectivity” value [2] was 87000 and the “CCK-1R selectivity” value [4, 5] was 960.

For `CCCC[C@H](NC(=O)[C@H](Cc1c[nH]c2ccccc12)NC(=O)CNC(=O)[C@H](CO)NC(=O)[C@H](Cc1ccc(OS(=O)(=O)O)cc1)NC(=O)[C@H](CC(=O)O)NC(=O)COCCOCCNC(=O)COCCOCCNC(=O)CC[C@H](NC(=O)CCCCCCCCCCCCCCCCC(=O)O)C(=O)O)C(=O)N(C)[C@H](CC(=O)O)C(=O)N(C)[C@@H](Cc1ccccc1)C(N)=O` [Example 45, 2-[2-[2-[[2-[2-[2-[[(4S)-4-Carboxy-4-(17-carboxyheptadecanoylamino)butanoyl]amino]ethoxy]ethoxy]acetyl]amino]ethoxy]ethoxy]acetyl-Asp-sTyr-Ser-Gly-Trp-Nle-DMeAsp-MePhe-amide] ({C18 diacid-γGlu-AEEA-AEEA}-D[sY]SGW[Nle][dNMeD][NMeF]-NH2), the “CCK-1R binding selectivity” value [2] was 82000, the EC50 [4, 6] was 0.31 nM and the “CCK-1R selectivity” value [4, 5] was 3000.

With `CCCC[C@H](NC(=O)[C@H](Cc1c[nH]c2ccccc12)NC(=O)CNC(=O)[C@H](C)NC(=O)[C@H](Cc1ccc(OS(=O)(=O)O)cc1)NC(=O)[C@H](CC(=O)O)NC(=O)COCCOCCNC(=O)COCCOCCNC(=O)CC[C@H](NC(=O)CCCCCCCCCCCCCCCCC(=O)O)C(=O)O)C(=O)N(C)[C@H](CC(=O)O)C(=O)N(C)[C@@H](Cc1ccccc1)C(N)=O` [Example 46, 2-[2-[2-[[2-[2-[2-[[(4S)-4-Carboxy-4-(17-carboxyheptadecanoylamino)butanoyl]amino]ethoxy]ethoxy]acetyl]amino]ethoxy]ethoxy]acetyl-Asp-sTyr-Ala-Gly-Trp-Nle-DMeAsp-MePhe-amide] ({C18 diacid-γGlu-AEEA-AEEA}-D[sY]AGW[Nle][dNMeD][NMeF]-NH2) the “CCK-1R binding selectivity” value [2] was 4100, the EC50 [4, 6] was 0.22 nM and the “CCK-1R selectivity” value [4, 5] was 440.

`CCCC[C@H](NC(=O)[C@H](Cc1ccc(CS(=O)(=O)O)cc1)NC(=O)C[C@H](N)C(=O)O)C(=O)NCC(=O)N[C@@H](Cc1c[nH]c2ccccc12)C(=O)N[C@@H](CCCC)C(=O)N(C)[C@H](CC(=O)O)C(=O)N(C)[C@@H](Cc1ccccc1)C(N)=O` [Example 75, bAsp-Phe(4-sulfomethyl)-Nle-Gly-Trp-Nle-DMeAsp-MePhe-amide] (βAsp-[Phe(4-CH2SO3H)][Nle]GW[Nle][dNMeD][NMeF]-NH2) was tested, and the EC50 ([1]; 1321-N1 cells stably expressing CCK-2R, IP1 accumulation, highest dose tested 1×10^6 pM, read-out: EC50 (CCK-2R)) was over 1000 nM, the IC50 ([2]; displacement of [125I]-CCK-8s, plasma membranes of 1321-N1 cells expressing CCK-1R, read-out: IC50 (CCK-1R)) was 0.049 nM and the “CCK-1R binding selectivity” value [2] was 59000. For the same compound, the EC50 [4, 6] was 0.19 nM.
